{"source": "patent US20240002437A1", "about": "“COMPOSITIONS AND METHODS OF TREATING INFLAMMATORY LUNG DISEASES” (priority 2020, published 2024)", "key": {"TRPV4 [1]": {"tested_on": "TRPV4", "assay": "Cytosolic Ca2+ concentration ([Ca2+]cyt), fura-2/AM loaded PAEC", "type": "cell-based, ovine", "settings": "4αPDD 10 μM", "procedure": "(§1) Primary cultures of ovine pulmonary arterial endothelial cells (PAEC) were isolated as described previously (L. K. Kelly, Am J Physiol Lung Cell Mol Physiol, 286(5), L984-91 (2004)). Briefly, cells were maintained in Dulbecco's modified Eagle medium (DMEM) supplemented with 10% fetal calf serum (Hyclone, Logan, UT), antibiotics/antimycotic (500 IU Penicillin, 500 μg/ml Streptomycin, 1.25 μg/ml Amphotericin B; MediaTech, Herndon, VA) at 37° C. in a humidified atmosphere with 5% CO2 and 95% air. Cells were used for experiments between passages 9-14, seeded at ˜50% confluence, and utilized when fully confluent.\nPAEC were grown at 50-60% confluence on 25-mm-diameter circular glass coverslips. […] The fluorescence emission (at 520 nm) was captured with an EM-CC camera (Evolve; Photometric, Tucson, AZ) and analyzed using NIS Elements 3.2 software (Nikon). [Ca^2+]cyt is expressed as 340/380 fluorescence ratio within an area of interest in the peripheral area of a cell recorded every 2 s. […] [Ca^2+]cyt was calculated using the following equation: [Ca^2+]cyt=Kd×(Sf2/Sf1)×(R−Rmin)/(Rmax−R). Kd (225 nM) is the dissociation constant of the Ca2+-fura-2 complex; and Sf2 and Sf1 and Rmin and Rmax were calculated using a standard protocol (G. Grynkiewicz, J Biol Chem, 260(6), 3440-50 (1985)). […]"}, "TRPV4 [2]": {"tested_on": "TRPV4", "settings": "literature (Alvarez, Circ Res 2006); cited from earlier work"}, "PAEC [3]": {"tested_on": "PAEC", "assay": "Mitochondrial membrane potential (TMRM) in PAEC", "type": "cell-based, ovine", "settings": "4αPDD 10 μM, 3 h", "procedure": "as §1\nMitochondrial membrane potential was determined using TMRM (tetramethylrhodamine methyl ester perchlorate, Molecular Probes, Eugene, OR). Briefly, after each experiment, cells were washed with fresh media, incubated in media containing TMRM (50 nM), for 30 min at 37° C. in dark conditions, then subjected to fluorescence microscopy using an excitation of 548 nm and an emission at 575 nm. An Olympus IX51 microscope equipped with a CCD camera (Hamamatsu Photonics) was used for acquisition of fluorescent images and the average fluorescent intensities were quantified using ImagePro Plus version 5.0 imaging software (Media Cybernetics)."}, "PAEC [4]": {"tested_on": "PAEC", "assay": "Mitochondrial ROS levels (MitoSOX Red) in PAEC", "type": "cell-based, ovine", "settings": "4αPDD 10 μM, 3 h", "procedure": "as §1\nMitoSOX™ Red (Molecular Probes), a fluorogenic dye for selective detection of ROS levels in the mitochondria of live cells was used. Briefly, cells were washed with fresh media, and then incubated in media containing MitoSOX Red (2 μM), for 30 min at 37° C. in dark conditions then subjected to fluorescence microscopy at an excitation of 510 nm and an emission at 580 nm. An Olympus IX51 microscope equipped with a CCD camera (Hamamatsu Photonics) was used for acquisition of fluorescent images. The average fluorescent intensities (to correct for differences in cell number) were quantified using ImagePro Plus version 5.0 imaging software (Media Cybernetics, Rockville, MD)."}}, "note": "“Also recorded” adds a separate entry of the source."}
{"compound": "CCCCCCCCCC(=O)O[C@@H]1[C@@H](C)[C@@]2(O)[C@@H](C=C(CO)C[C@@]3(O)C(=O)C(C)=C[C@@H]23)[C@@H]2C(C)(C)[C@]12OC(=O)CCCCCCCCC", "note": "[4αPDD, 4α-Phorbol-12,13 didecanoate]", "values": [{"measurement": "cytosolic free Ca2+ concentration ([Ca2+]cyt)", "setting": "TRPV4 [1]", "result": "transient increase of [Ca^2+]cyt; also recorded: induced a transient increase"}, {"measurement": "lung injury on 4αPDD exposure", "setting": "TRPV4 [2]", "result": "leads to Ca^2+ entry-dependent acute lung injury, disruption of the lung barrier, and alveolar flooding"}, {"measurement": "mitochondrial membrane potential (TMRM)", "setting": "PAEC [3]", "result": "decrease in the mitochondrial membrane potential"}, {"measurement": "mitochondrial ROS levels (MitoSOX red fluorescence)", "setting": "PAEC [4]", "result": "increases in mitochondrial ROS levels"}]}
